This note sets out measurements from ChEMBL document CHEMBL4602682, “Ikoamide, an Antimalarial Lipopeptide from an Okeania sp. Marine Cyanobacterium” (J Nat Prod, 2020).

Data set [1] deals with HL-60. Description: Cytotoxicity against human HL60 cells at 10 uM incubated for 72 hrs by MTT assay. The data set is classed as cell-based. As to conditions: hl-60, 72 h. Background: Formazan colour is commonly taken as a measure of viable cells.
The subject of a further data set is Plasmodium falciparum. Description: Antiplasmodial activity against asexual erythrocytic stage of Plasmodium falciparum 3D7 assessed as reduction in parasite growth after 72 hrs by LDH assay. The data set is classed as functional, organism-based. The following applies: 3D7, 72 h.
The test system of another data set is HeLa. Kind of data set: Cytotoxicity against human HeLa cells at 10 uM incubated for 72 hrs by MTT assay. The data set is classed as cell-based.
The subject of data set [2] is HL-60. Description: Cytotoxicity against human HL60 cells incubated for 72 hrs by MTT assay. The data set is classed as cell-based. The following applies: HL-60, 72 h.

What is called IC50 is the concentration needed to halve the response being measured. For `CCC[C@H](C[C@@H](CC(=O)N(C)[C@@H](C(=O)N[C@H](CO)C(=O)N[C@H](CC(C)C)C(=O)N(C)[C@@H](CC(C)C)C(=O)N[C@H](C(=O)N(C)[C@H](C(=O)N(C)[C@@H](CCC(N)=O)C(=O)N(C)[C@@H](Cc1ccc(OC)cc1)C(=O)OC)[C@@H](C)CC)[C@@H](C)O)[C@@H](C)CC)OC)OC`, the Activity result with HL-60 [1] and in the data set on HeLa was “Non-Toxic” in each case. The half-maximal inhibitory concentration (IC50) in the data set on Plasmodium falciparum was determined as 0.14 µM.
Compound `COc1cccc2c1C(=O)c1c(O)c3c(c(O)c1C2=O)C[C@@](O)(C(=O)CO)C[C@@H]3O[C@H]1C[C@H](N)[C@H](O)[C@H](C)O1` [DOXORUBICIN] registered a concentration for half-maximal inhibition (IC50) with HL-60 [2] of 0.046 µM.
